In US11639912B2, “Sensor and concentration measurement method” (PHC Holdings Corporation, priority 2009, dated 2023):
Converted amounts (≈) assume the structure as drawn. Read-outs that look alike come from different tables or passages of the source.

Key:
[1] = Redox / oxidation potentials stated in the description without method; type: physicochemical; conditions: no method given
[2] = background statement, cited from earlier work
[3] = Solubility of mediator in water, evaluated visually; type: physicochemical; conditions: for solubility: thermodynamic from solid, Table 1, water at 25° C., evaluated visually
Experimental: Potassium ferricyanide, 9,10-phenanthrenequinone, and sodium 9,10-phenanthrene-quinone-2-sulfonate were weighed out, and water was added to them. The solubility in water at 25° C. was evaluated visually.

[4] = Redox potential by cyclic voltammetry (glassy carbon working electrode, Ag|AgCl reference); type: physicochemical; conditions: for Eox (V), potential value at the peak oxidation current / Ered (V), potential value at the peak reduction current: 1 mM in 100 mM phosphate buffer pH 7, sweep 0.1 V/second; for E0′ (V) [(Ered + Eox)/2], redox potential: average of Ered and Eox
Experimental: Potassium ferricyanide and sodium 9,10-phenanthrenequinone-2-sulfonate were each dissolved in an amount of 1 mM in a 100 mM phosphate buffer (pH 7), to prepare a potassium ferricyanide aqueous solution and a sodium 9,10-phenanthrenequinone-2-sulfonate aqueous solution.
These aqueous solutions were used to measure the redox potential by cyclic voltammetry for potassium ferricyanide and sodium 9,10-phenanthrenequinone-2-sulfonate. More specifically, the electrodes used here were as follows. • working electrode: glassy carbon electrode • counter electrode: platinum wire • reference electrode: silver/silver chloride (saturated potassium chloride) electrode (hereinafter referred to as Ag|AgCl).
A potentiostat was used for measurement. The various electrodes and the potentiostat were types commonly used in electrochemistry. This equipment can be purchased from BAS, for example.
The cyclic voltammetry involved searching for the potential applied to the working electrode, linearly with respect to time. The sweep rate was set to 0.1 V/second. First, a first potential was applied to the working electrode, and the electrode potential was swept to the negative side from the starting potential to a second potential that was more negative. Then, sweep was performed in which the electrode potential was flipped back to the positive side from the second potential to the first potential.
The first and second potentials were 0.7 V and −0.3 V, respectively, in the case of potassium ferricyanide, and were 0.2 V and −0.5 V in the case of sodium 9,10-phenanthrenequinone-2-sulfonate.
The potential discussed next is the potential with respect to Ag|AgCl.
If we calculate the redox potential as the average value [(Ered+Eox)/2] of the potential value at the peak oxidation current (Eox) and the potential value at the peak reduction current (Ered), the redox potential for the sodium 9,10-phenanthrenequinone-2-sulfonate is −150 mV and the redox potential for potassium ferricyanide is 225 mV. Thus, the redox potential for sodium 9,10-phenanthrenequinone-2-sulfonate measured using Ag|AgCl as a reference electrode was negative.
Also, compounds A, B, H′, I, I′, and J and disodium 9,10-phenanthrenequinone-2,7-disulfonate were subjected to cyclic voltammetry by the same operation as in FIG. 4. […]

[5] = FIG. 4, vs Ag|AgCl, 100 mM phosphate buffer pH 7

SMILES: O=C1C=C(S(=O)(=O)O)c2ccccc2C1=O [1,2-naphthoquinone-4-sulfonic acid]
- redox potential of mediators pertaining to the invention [1]: −16 mV

SMILES: O=C1C(=O)c2cccnc2-c2ncccc21 [phenanthroline quinone]
- redox potential of coenzymes and prior-art mediator [2]: approximately 0 mV

SMILES: O=C(NCCS(=O)(=O)[O-])c1ccc(-c2ccc3c(c2)C(=O)C(=O)c2ccccc2-3)cc1.[Na+] [compound I′]
- Solubility in water ([3]; Table 2): 20 mM
- Eox (V), potential value at the peak oxidation current ([4]; vs Ag|AgCl): −0.14 V
- Ered (V), potential value at the peak reduction current ([4]; vs Ag|AgCl): −0.22 V
- E0′ (V) [(Ered + Eox)/2], redox potential ([4]; vs Ag|AgCl): −0.18 V

SMILES: O=C(O)c1cc(C(=O)O)c2c(n1)C(=O)C(=O)c1cc(C(=O)O)[nH]c1-2 [PQQ, pyrroloquinoline quinone]
- redox potential of coenzymes and prior-art mediator [2]: approximately −200 mV

SMILES: O=C([O-])c1cc(C(=O)[O-])cc(-c2ccc3c(c2)C(=O)C(=O)c2ccccc2-3)c1.[Na+].[Na+] [compound J]
- Solubility in water ([3]; Table 2): 50 mM
- Eox (V), potential value at the peak oxidation current ([4]; vs Ag|AgCl): −0.15 V
- Ered (V), potential value at the peak reduction current ([4]; vs Ag|AgCl): −0.23 V
- E0′ (V) [(Ered + Eox)/2], redox potential ([4]; vs Ag|AgCl): −0.19 V

SMILES: O=C1O[C@H]([C@@H](O)CO)C(O)=C1O [ascorbic acid]
- oxidation potential ([2]; vs. Ag|AgCl): approximately −140 mV

SMILES: O=C1C(=O)c2cc(S(=O)(=O)[O-])ccc2-c2ccccc21.[Na+] [sodium 9,10-phenanthrenequinone-2-sulfonate]
- Solubility in water (in words) [3]: good solubility
- solubility [3]: > 80 mM
- Eox (V), potential value at the peak oxidation current ([4]; vs Ag|AgCl): −0.12 V
- Ered (V), potential value at the peak reduction current ([4]; vs Ag|AgCl): −0.18 V
- potential at the peak oxidation current [4, 5]: −120 mV
- potential at the peak reduction current [4, 5]: −180 mV
- redox reaction with a glassy carbon electrode ([4]; cyclic voltammetry): quickly and reversibly
- redox potential lower than that of potassium ferricyanide ([4]; difference to potassium ferricyanide): about 400 mV
- redox potential [(Ered+Eox)/2] ([4]; vs Ag|AgCl): −150 mV
- E0′ (V) [(Ered + Eox)/2], redox potential ([4]; vs Ag|AgCl): −0.15 V

SMILES: O=C1C(=O)c2cc(S(=O)(=O)[O-])ccc2-c2ccc(S(=O)(=O)[O-])cc21.[Na+].[Na+] [disodium 9,10-phenanthrenequinone-2,7-disulfonate]
- Solubility in water ([3]; Table 2): over 200 mM
- Eox (V), potential value at the peak oxidation current ([4]; vs Ag|AgCl): −0.06 V
- Ered (V), potential value at the peak reduction current ([4]; vs Ag|AgCl): −0.18 V
- E0′ (V) [(Ered + Eox)/2], redox potential ([4]; vs Ag|AgCl): −0.12 V

SMILES: O=C1C(=O)c2cc([N+](=O)[O-])ccc2-c2ccccc21 [compound A]
- Solubility in water ([3]; Table 2): 1 mM (≈ 253 µg/mL)
- Eox (V), potential value at the peak oxidation current ([4]; vs Ag|AgCl): −0.10 V
- Ered (V), potential value at the peak reduction current ([4]; vs Ag|AgCl): −0.13 V
- E0′ (V) [(Ered + Eox)/2], redox potential ([4]; vs Ag|AgCl): −0.12 V

SMILES: Nc1ccc2c(c1)C(=O)C(=O)c1ccccc1-2 [compound B]
- Solubility in water [3]: 1 mM (≈ 223 µg/mL)
- Eox (V), potential value at the peak oxidation current ([4]; vs Ag|AgCl): −0.19 V
- Ered (V), potential value at the peak reduction current ([4]; vs Ag|AgCl): −0.23 V
- E0′ (V) [(Ered + Eox)/2], redox potential ([4]; vs Ag|AgCl): −0.21 V

SMILES: O=C1C(=O)c2cc(-c3ccc(S(=O)(=O)[O-])cc3)ccc2-c2ccccc21.[Na+] [compound H′]
- Solubility in water ([3]; Table 2): 20 mM
- Eox (V), potential value at the peak oxidation current ([4]; vs Ag|AgCl): −0.14 V
- Ered (V), potential value at the peak reduction current ([4]; vs Ag|AgCl): −0.21 V
- E0′ (V) [(Ered + Eox)/2], redox potential ([4]; vs Ag|AgCl): −0.18 V

SMILES: Cc1cc2nc3c(=O)[nH]c(=O)nc-3n(C[C@H](O)[C@H](O)[C@H](O)COP(=O)(O)OP(=O)(O)OC[C@H]3O[C@@H](n4cnc5c(N)ncnc54)[C@H](O)[C@@H]3O)c2cc1C [FAD, flavin adenine dinucleotide]
- redox potential of coenzymes and prior-art mediator [2]: approximately −300 mV

SMILES: O=C([O-])c1ccc(-c2ccc3c(c2)C(=O)C(=O)c2ccccc2-3)cc1.[Na+] [compound I]
- Solubility in water ([3]; Table 2): 5 mM
- Eox (V), potential value at the peak oxidation current ([4]; vs Ag|AgCl): −0.14 V
- Ered (V), potential value at the peak reduction current ([4]; vs Ag|AgCl): −0.22 V
- E0′ (V) [(Ered + Eox)/2], redox potential ([4]; vs Ag|AgCl): −0.18 V

SMILES: O=C1C(=O)c2cc(S(=O)(=O)O)ccc2-c2ccccc21 [9,10-phenanthrenequinone-2-sulfonic acid]
- redox potential of mediators pertaining to the invention [1]: −140 mV

SMILES: O=C1C(=O)c2ccccc2-c2ccccc21 [9,10-phenanthrenequinone]
- solubility [3]: < 1 mM
- redox potential of mediators pertaining to the invention [1]: −180 mV
